Literature values, collected in US6797704B2, “Systemic delivery of compounds through non-invasive bladder administration” (The Johns Hopkins University, priority 2000, dated 2004).

What was measured:
[1] = men
murine lung tumors = details: co-injection with naked DNA; from more than 250

Row | systemic absorption following intravesical administration [1] | Molecule | number of primary lung metastases (murine lung tumors)
1 | minimal | COc1cccc2c1C(=O)c1c(O)c3c(c(O)c1C2=O)C[C@@](O)(C(=O)CO)C[C@@H]3O[C@H]1C[C@H](N)[C@H](O)[C@H](C)O1 [doxorubicin] | 
2 |  | recombinant murine interleukin-12: cytokine co-injected with naked DNA in a literature lung tumor study (protein, UniProt P43431 23-215; P43432 23-335, looked up) Interleukin-12 subunit alpha: RVIPVSGPARCLSQSRNLLKTTDDMVKTAREKLKHYSCTAEDIDHEDITRDQTSTLKTCLPLELHKNESCLATRETSSTTRGSCLPPQKTSLMMTLCLGSIYEDLKMYQTEFQAINAALQNHNHQQIILDKGMLVAIDELMQSLNHNGETLRQKPPVGEADPYRVKMKLCILLHAFSTRVVTINRVMGYLSSA Interleukin-12 subunit beta: MWELEKDVYVVEVDWTPDAPGETVNLTCDTPEEDDITWTSDQRHGVIGSGKTLTITVKEFLDAGQYTCHKGGETLSHSHLLLHKKENGIWSTEILKNFKNKTFLKCEAPNYSGRFTCSWLVQRNMDLKFNIKSSSSSPDSRAVTCGMASLSAEKVTLDQRDYEKYSVSCQEDVTCPTAEETLPIELALEARQQNKYENYSTSFFIRDIIKPDPPKNLQMKPLKNSQVEVSWEYPDSWSTPHSYFSLKFFVRIQRKKEKMKETEEGCNQKGAFLVEKTSTEVQCKGGNVCVQAQDRYYNSSCSKWACVPCRVRS | around 10
